Assay results: US20230192661A1, “1, 4, 5, 6-TETRAHYDROPYRIMIDINE-2-AMINE DERIVATIVE” (UBE Corporation, priority 2020, published 2023)

Experiments:
[1] = system: Human hepatic stellate cells; assay: Active human hepatic stellate cell dedifferentiation test (decrease in ACTA2 mRNA expression); type: cell-based; settings: 3 days differentiation then 2 days with compound, read-out: IC50 (rate of decrease in ACTA2 mRNA expression)
Procedure: Human hepatic stellate cells (manufactured by ScienCell Research Laboratories, Inc., 5300) were suspended in DMEM containing 10% FBS and […] penicillin/streptomycin/amphotericin B to prepare a cell suspension of 0.5×10^5 cells/mL, which was regarded as cells at the start of differentiation. The cells at the start of differentiation were dispensed at 1 mL/well to a 12-well plate and cultured, for differentiation, for 3 days in a 5% CO2 incubator (37° C.).
The culture solution in each well was removed, and DMEM containing 10% FBS and 1% penicillin/streptomycin/amphotericin B supplemented with a test compound dissolved in DMSO (final DMSO concentration: 0.1%) was added at 1 mL/well. The resultant was further cultured for 2 days in a 5% CO2 incubator (37° C.). In Test Example 4, the same reagents as in Test Example 1 were used unless otherwise specified.
RNA in the cultured cells was extracted using NucleoSpin® RNA (manufactured by Takara Bio Inc., U0955C), and cDNA was further synthesized from the extracted RNA using Prime Script™ RT reagent Kit with gDNA Eraser (manufactured by Takara Bio Inc., RR047A). Real time PCR was performed using the synthesized cDNA, various primers and TB Green® Premix Ex Taq™ II (manufactured by Takara Bio Inc., RR820A) and using PCR Thermal Cycler Dice Real Time (manufactured by Takara Bio Inc., System Code TP910, Model Code TP900). The primers used were actin alpha 2, smooth muscle (ACTA2) primer (manufactured by Takara Bio Inc., HA136273) and glyceraldehyde-3-phosphate dehydrogenase (GAPDH) primer (manufactured by Takara Bio Inc., HA067812).
The amplification curve of PCR was analyzed by the comparative Ct method. The expression level of ACTA2 mRNA was corrected with the expression level of GAPDH mRNA. An ACTA2 mRNA expression level when DMSO was added instead of the test compound was defined as 100%, and an ACTA2 mRNA expression level in the cells at the start of differentiation was defined as 0%. The rate of decrease in ACTA2 mRNA expression by the test compound was calculated according to the following expression.
Rate of decrease in ACTA2 mRNA expression (%)=[1−{(ACTA2 mRNA expression level in the case of adding the test compound)−(ACTA2 mRNA expression level in the cells at the start of differentiation)}/{(ACTA2 mRNA expression level in the case of adding DMSO)−(ACTA2 mRNA expression level in the cells at the start of differentiation)}]×100
An IC50 value was calculated from the rate of decrease in ACTA2 mRNA expression by the test compound. A: IC50<10 nM, B: 10 nM≤IC50<50 nM, C: 50 nM≤IC50<100 nM, or D: IC50≥100 nM.

[2] = Transcellular transport test using Caco2 cell; type: in vitro ADME; settings: human, Caco-2; Caco2 monolayer, A-to-B, 10 μM compound, pH 7.4, 90 minutes
Procedure: Caco2 cells (purchased from ATCC) were cultured in DMEM medium (Thermo Fisher Scientific, Inc., 11965) containing 10% FBS (Thermo Fisher Scientific, Inc., 10082) and 1% penicillin/streptomycin/amphotericin B (Thermo Fisher Scientific, Inc., 15240). A transcellular transport test was carried out in accordance with MultiScreen Caco2 Drug Transport Assembly in a 96-well system (Application Note AN1727EN, MultiScreen Caco-2 Assay System, Merck) by partially modifying it. The Caco2 cells were inoculated at a cell density of 4×10^4 cells/well onto a micropore polycarbonate insert of a 96-well plate (Merck, Millcell-96 culture insert plate 0.4 μm pore size, well membrane area=0.11 cm^2, PSHT004S5) and cultured for 20 to 22 days, and the resulting monolayer was used in the transcellular transport test. The medium of the inoculated cells was replaced with a fresh one every 3 to 4 days.
Apical-to-basolateral (A-to-B) transport in the Caco2 cell monolayer membrane was performed by using HBSS (Thermo Fisher Scientific, Inc., 14025) medium (pH=7.4) containing 20 mM HEPES (Thermo Fisher Scientific, Inc., 15630), and adding HEPES-containing HBSS medium containing 10 μM compound (a 10 mM solution of the compound in DMSO was added at a 1000-fold dilution; final DMSO concentration: 0.1%) at 75 μL/well to the apical side and HEPES-containing HBSS medium supplemented with no compound at 250 μL/well to the basolateral side, followed by culture at 37° C. for 90 minutes. After culture, a 100 μL aliquot was collected from the basolateral side, and the concentration of a permeated compound was measured by LC-MS/MS under measurement conditions mentioned later. Papp (apparent permeability; cm/sec) was calculated from the determined concentration. Papp was determined according to the expression given below by calculating the slope (dA/dt; nmol/sec) of a straight line drawn between two points 0 minutes and zero amount of the compound in a graph plotted with an assay time (90 min) on the abscissa against the amount of the compound in the solution on the permeated side on the ordinate. As for an assay concentration, the concentration in the compound in the HEPES-containing HBSS medium containing the added compound was measured by UV-HPLC under measurement conditions mentioned later.
Papp (cm/sec)=C0×S×(dA/dt)
C0: assay concentration, S: plate membrane area=0.11 cm^2

Structure (SMILES)	IC50 [1]	Papp A→B at 90 min, 10 μM [2]
O=C(O)C[C@H](NC(=O)CNC(=O)c1cc(NC2=NCC(F)CN2)c2cn[nH]c2c1)c1cc(OC(F)F)cc(C(F)(F)F)c1 (stereo partly drawn) [Example 24-(b), (3S)-3-(3-(difluoromethoxy)-5-(trifluoromethyl)phenyl)-3-(2-(4-((5-fluoro-1,4,5,6-tetrahydropyrimidin-2-yl)amino)-1H-indazole-6-carboxamido)acetamido)propanoic acid]	< 10 nM	0.5 to 1 ×10⁻⁶ cm/s
O=C(O)C[C@H](NC(=O)CNC(=O)c1cc(NC2=NCC(F)CN2)c2cn[nH]c2c1)c1cc(Cl)cc(OC(F)F)c1 (stereo partly drawn) [Example 25-(b), (3S)-3-(3-chloro-5-(difluoromethoxy)phenyl)-3-(2-(4-((5-fluoro-1,4,5,6-tetrahydropyrimidin-2-yl)amino)-1H-indazole-6-carboxamido)acetamido)propanoic acid]	< 10 nM	> 1 ×10⁻⁶ cm/s
O=C(O)C[C@H](NC(=O)CNC(=O)c1cc(NC2=NCC(F)CN2)c2cn[nH]c2c1)c1cc(Br)cc(OC(F)F)c1 (stereo partly drawn) [Example 26-(b), (3S)-3-(3-bromo-5-(difluoromethoxy)phenyl)-3-(2-(4-((5-fluoro-1,4,5,6-tetrahydropyrimidin-2-yl)amino)-1H-indazole-6-carboxamido)acetamido)propanoic acid]	< 10 nM	> 1 ×10⁻⁶ cm/s
O=C(O)C[C@H](NC(=O)CNC(=O)c1cc(NC2=NCC(F)CN2)c2cn[nH]c2c1)c1cc(OC(F)F)ccc1F (stereo partly drawn) [Example 28-(b), (3S)-3-(5-(difluoromethoxy)-2-fluorophenyl)-3-(2-(4-((5-fluoro-1,4,5,6-tetrahydropyrimidin-2-yl)amino)-1H-indazole-6-carboxamido)acetamido)propanoic acid]	10 to 50 nM	> 1 ×10⁻⁶ cm/s
O=C(O)C[C@H](NC(=O)CNC(=O)c1cc(NC2=NCC(F)CN2)c2cn[nH]c2c1)c1cc(OC(F)F)cc(OC(F)F)c1 (stereo partly drawn) [Example 30-(b), (3S)-3-(3,5-bis(difluoromethoxy)phenyl)-3-(2-(4-((5-fluoro-1,4,5,6-tetrahydropyrimidin-2-yl)amino)-1H-indazole-6-carboxamido)acetamido)propanoic acid]	< 10 nM	0.5 to 1 ×10⁻⁶ cm/s
O=C(O)C[C@H](NC(=O)CNC(=O)c1cc(NC2=NCC(F)CN2)c2cn[nH]c2c1)c1cc(Cl)cc(OC(F)(F)F)c1 (stereo partly drawn) [Example 31-(b), (3S)-3-(3-chloro-5-(trifluoromethoxy)phenyl)-3-(2-(4-((5-fluoro-1,4,5,6-tetrahydropyrimidin-2-yl)amino)-1H-indazole-6-carboxamido)acetamido)propanoic acid]	< 10 nM	> 1 ×10⁻⁶ cm/s
O=C(O)C[C@H](NC(=O)CNC(=O)c1cc(NC2=NCC(F)CN2)c2cn[nH]c2c1)c1cc(Br)cc(OC(F)(F)F)c1 (stereo partly drawn) [Example 32-(b), (3S)-3-(3-bromo-5-(trifluoromethoxy)phenyl)-3-(2-(4-((5-fluoro-1,4,5,6-tetrahydropyrimidin-2-yl)amino)-1H-indazole-6-carboxamido)acetamido)propanoic acid]	10 to 50 nM	> 1 ×10⁻⁶ cm/s
O=C(O)C[C@H](NC(=O)CNC(=O)c1cc(NC2=NCC(F)CN2)c2cn[nH]c2c1)c1cc(OC(F)(F)F)ccc1F (stereo partly drawn) [Example 33-(b), (3S)-3-(2-(4-((5-fluoro-1,4,5,6-tetrahydropyrimidin-2-yl)amino)-1H-indazole-6-carboxamido)acetamido)-3-(2-fluoro-5-(trifluoromethoxy)phenyl)propanoic acid]	10 to 50 nM	> 1 ×10⁻⁶ cm/s
O=C(O)C[C@H](NC(=O)CNC(=O)c1cc(NC2=NCC(F)CN2)c2cn[nH]c2c1)c1ccc(F)c(OC(F)(F)F)c1 (stereo partly drawn) [Example 34-(b), (3S)-3-(2-(4-((5-fluoro-1,4,5,6-tetrahydropyrimidin-2-yl)amino)-1H-indazole-6-carboxamido)acetamido)-3-(4-fluoro-3-(trifluoromethoxy)phenyl)propanoic acid]	10 to 50 nM	> 1 ×10⁻⁶ cm/s
O=C(O)C[C@H](NC(=O)CNC(=O)c1cc(NC2=NCC(F)CN2)c2cn[nH]c2c1)c1cccc(C(F)(F)F)c1 (stereo partly drawn) [Example 35-(b), (3S)-3-(2-(4-((5-fluoro-1,4,5,6-tetrahydropyrimidin-2-yl)amino)-1H-indazole-6-carboxamido)acetamido)-3-(3-(trifluoromethyl)phenyl)propanoic acid]	< 10 nM	> 1 ×10⁻⁶ cm/s
O=C(O)C[C@H](NC(=O)CNC(=O)c1cc(NC2=NCC(F)CN2)c2cn[nH]c2c1)c1cccc(OC(F)(F)F)c1 (stereo partly drawn) [Example 36-(b), (3S)-3-(2-(4-((5-fluoro-1,4,5,6-tetrahydropyrimidin-2-yl)amino)-1H-indazole-6-carboxamido)acetamido)-3-(3-(trifluoromethoxy)phenyl)propanoic acid]	10 to 50 nM	> 1 ×10⁻⁶ cm/s
O=C(O)C[C@H](NC(=O)CNC(=O)c1cc(NC2=NCC(F)CN2)c2cn[nH]c2c1)c1cccc(OC(F)F)c1 (stereo partly drawn) [Example 37-(b), (3S)-3-(3-(difluoromethoxy)phenyl)-3-(2-(4-((5-fluoro-1,4,5,6-tetrahydropyrimidin-2-yl)amino)-1H-indazole-6-carboxamido)acetamido)propanoic acid]	10 to 50 nM	> 1 ×10⁻⁶ cm/s
O=C(O)C[C@H](NC(=O)CNC(=O)c1cc(NC2=NCC(F)CN2)c2cn[nH]c2c1)c1cccc(C(F)F)c1 (stereo partly drawn) [Example 38-(b), (3S)-3-(3-(difluoromethyl)phenyl)-3-(2-(4-((5-fluoro-1,4,5,6-tetrahydropyrimidin-2-yl)amino)-1H-indazole-6-carboxamido)acetamido)propanoic acid]	< 10 nM	> 1 ×10⁻⁶ cm/s
O=C(O)C[C@H](NC(=O)CNC(=O)c1cc(NC2=NCC(F)CN2)c2cn[nH]c2c1)c1cccc(C2CC2)c1 (stereo partly drawn) [Example 39-(b), (3S)-3-(3-cyclopropylphenyl)-3-(2-(4-((5-fluoro-1,4,5,6-tetrahydropyrimidin-2-yl)amino)-1H-indazole-6-carboxamido)acetamido)propanoic acid]	< 10 nM	> 1 ×10⁻⁶ cm/s
O=C(O)C[C@H](NC(=O)CNC(=O)c1cc(NC2=NCC(F)CN2)c2cn[nH]c2c1)c1cccc(OC2CC2)c1 (stereo partly drawn) [Example 40-(b), (3S)-3-(3-cyclopropoxyphenyl)-3-(2-(4-((5-fluoro-1,4,5,6-tetrahydropyrimidin-2-yl)amino)-1H-indazole-6-carboxamido)acetamido)propanoic acid]	10 to 50 nM	> 1 ×10⁻⁶ cm/s
